Active and inactive are the calls of the source. The calls are words filed in the database; no cut-off is given here.
Assays:
[1] = Induction of apoptosis in mouse NIH/3T3 cells assessed as late apoptotic cells at 20 uM after 24 hrs by annexin-V-FITC/propidium iodide staining based flow cytometry (reference value: 0.28 %); type: cell-based; conditions: nih3t3, 24 h
[2] = system: MDA-MB-231; assay: Induction of apoptosis in human MDA-MB-231 cells assessed as necrotic cells at 20 uM after 24 hrs by annexin-V-FITC/propidium iodide staining based flow cytometry (reference value: 5.40 %); type: functional
[3] = system: B16-F10; assay: Induction of apoptosis in mouse B16F10 cells assessed as increase in cleaved caspase 3 level at 10 uM after 36 hrs by western blot analysis; type: functional, cell-based
[4] = Induction of apoptosis in mouse NIH/3T3 cells assessed as necrotic cells at 20 uM after 24 hrs by annexin-V-FITC/propidium iodide staining based flow cytometry (reference value: 0.24 %); type: cell-based; conditions: nih3t3, 24 h
[5] = system: B16-F10; assay: Induction of apoptosis in mouse B16F10 cells assessed as increase in cytochrome C level at 10 uM after 36 hrs by western blot analysis; type: functional, cell-based
[6] = Induction of apoptosis in mouse NIH/3T3 cells assessed as early apoptotic cells at 20 uM after 24 hrs by annexin-V-FITC/propidium iodide staining based flow cytometry (reference value: 0.43 %); type: cell-based; conditions: nih3t3, 24 h
[7] = system: B16-F10; assay: Induction of apoptosis in mouse B16F10 cells assessed as increased Bax expression at 10 uM after 36 hrs by western blot analysis; type: functional, cell-based
[8] = Induction of apoptosis in mouse NIH/3T3 cells assessed as viable cells at 20 uM after 24 hrs by annexin-V-FITC/propidium iodide staining based flow cytometry (reference value: 99.06 %); type: cell-based, NIH3T3; conditions: read-out: Activity
[9] = system: B16-F10; assay: Antitumor activity in mouse B16F10 cells xenografted in C57BL/J mouse assessed as increase of apoptotic protein cleaved caspase 7 level in tumor lysates at 10 mg/kg, ip by western blot analysis; type: functional, organism-based; conditions: Neoplasm, Lysate
[10] = system: RAW264.7; assay: Induction of apoptosis in mouse RAW264.7 cells assessed as late apoptotic cells at 20 uM after 24 hrs by annexin-V-FITC/propidium iodide staining based flow cytometry (reference value: 5.64 %); type: cell-based; conditions: raw264.7, 24 h
[11] = system: B16-F10; assay: Antitumor activity in mouse B16F10 cells xenografted in C57BL/J mouse assessed as increase of apoptotic protein cleaved caspase 9 level in tumor lysates at 10 mg/kg, ip by western blot analysis; type: functional, organism-based; conditions: Neoplasm, Lysate
[12] = system: MDA-MB-231; assay: Induction of apoptosis in human MDA-MB-231 cells assessed as late apoptotic cells at 20 uM after 24 hrs by annexin-V-FITC/propidium iodide staining based flow cytometry (reference value: 3.25 %); type: functional
[13] = system: B16-F10; assay: Effect on Bcl-2 expression in mouse B16F10 cells at 10 and 20 uM after 36 hrs by western blot analysis; type: functional, cell-based
[14] = Cytotoxicity against mouse B16F10 cells at 10 and 20 uM after 72 hrs by MTT assay; type: functional, B16-F10
[15] = system: RAW264.7; assay: Induction of apoptosis in mouse RAW264.7 cells assessed as necrotic cells at 20 uM after 24 hrs by annexin-V-FITC/propidium iodide staining based flow cytometry (reference value: 1.81%); type: cell-based; conditions: raw264.7, 24 h
[16] = system: B16-F10; assay: Induction of apoptosis in mouse B16F10 cells assessed as viable cells at 20 uM after 24 hrs by annexin-V-FITC/propidium iodide staining based flow cytometry (reference value: 93.66 %); type: functional; conditions: B16-F10, 24 h, read-out: Activity
[17] = Induction of apoptosis in mouse RAW264.7 cells assessed as viable cells at 20 uM after 24 hrs by annexin-V-FITC/propidium iodide staining based flow cytometry (reference value: 89.11 %); type: cell-based; conditions: read-out: Activity
[18] = organism: Gallus gallus; assay: Antiangiogenic activity in chicken embryo assessed as complete degradation of existing blood vessels at 80 uM after 4 hrs by microscopic analysis; type: functional, tissue-based; conditions: Blood vessel
[19] = system: B16-F10; assay: Induction of apoptosis in mouse B16F10 cells assessed as early apoptotic cells at 20 uM after 24 hrs by annexin-V-FITC/propidium iodide staining based flow cytometry (reference value: 0.46 %); type: functional
[20] = system: A549; assay: Cytotoxicity against human A549 cells after 72 hrs by MTT assay; type: functional, cell-based; conditions: A549, 72 h
[21] = system: A549; assay: Induction of apoptosis in human A549 cells assessed as necrotic cells at 20 uM after 24 hrs by annexin-V-FITC/propidium iodide staining based flow cytometry (reference value: 3.23 %); type: functional
[22] = system: B16-F10; assay: Antitumor activity in mouse B16F10 cells xenografted in C57BL/J mouse assessed as increase of apoptotic protein cytochrome C level in tumor lysates at 10 mg/kg, ip by western blot analysis; type: functional, organism-based; conditions: Neoplasm, Lysate
[23] = Cell cycle arrest in mouse B16F10 cells assessed as accumulation at subG0/G1 phase at 20 uM after 24 hrs by propidium iodide staining based flow cytometry (reference value: 40.7 %); type: functional; conditions: B16-F10
[24] = system: A549; assay: Induction of apoptosis in human A549 cells assessed as viable cells at 20 uM after 24 hrs by annexin-V-FITC/propidium iodide staining based flow cytometry (reference value: 87.96 %); type: functional; conditions: A549, 24 h, read-out: Activity
[25] = system: RAW264.7; assay: Induction of apoptosis in mouse RAW264.7 cells assessed as early apoptotic cells at 20 uM after 24 hrs by annexin-V-FITC/propidium iodide staining based flow cytometry (reference value: 3.44 %); type: cell-based; conditions: raw264.7, 24 h
[26] = Cytotoxicity against mouse B16F10 cells after 72 hrs by MTT assay; type: functional, cell-based; conditions: B16-F10, 72 h
[27] = system: MDA-MB-231; assay: Induction of apoptosis in human MDA-MB-231 cells assessed as early apoptotic cells at 20 uM after 24 hrs by annexin-V-FITC/propidium iodide staining based flow cytometry (reference value: 0.58 %); type: functional
[28] = system: B16-F10; assay: Induction of apoptosis in mouse B16F10 cells assessed as increase in ratio of Bax/Bcl2 level at 10 uM after 36 hrs by western blot analysis (reference value: 0.2); type: functional
[29] = Antitumor activity in mouse B16F10 cells xenografted in C57BL/J mouse assessed as increase in ratio of Bax/Bcl2 in tumor lysates at 10 mg/kg, ip by western blot analysis (reference value: 0.4); type: functional, Neoplasm, B16-F10
[30] = system: MDA-MB-231; assay: Induction of apoptosis in human MDA-MB-231 cells assessed as viable cells at 20 uM after 24 hrs by annexin-V-FITC/propidium iodide staining based flow cytometry (reference value: 90.77 %); type: functional; conditions: MDA-MB-231, 24 h, read-out: Activity
[31] = organism: Gallus gallus; assay: Antiangiogenic activity in chicken embryo assessed as inhibition of neovascularization at 40 uM after 4 hrs by microscopic analysis; type: functional, tissue-based
[32] = system: Mus musculus; assay: Toxicity in C57BL/J mouse xenografted with mouse B16F10 cells assessed as animal survival at 10 mg/kg, ip measured upto 45 days post tumor inoculation; type: organism-based, B16-F10; conditions: in vivo, 1080 h
[33] = Cell cycle arrest in mouse B16F10 cells assessed as increase in cyclin B1 level at 20 uM by flow cytometric analysis; type: functional, cell-based; conditions: B16-F10
[34] = system: B16-F10; assay: Induction of apoptosis in mouse B16F10 cells assessed as increase in cytochrome C level at 20 uM after 36 hrs by western blot analysis; type: functional, cell-based
[35] = system: B16-F10; assay: Induction of apoptosis in mouse B16F10 cells assessed as increased Bax expression at 20 uM after 36 hrs by western blot analysis; type: functional, cell-based

Q: Which results are given for `CCCCCCCCCCCCCCCC[N+](C)(CCCCCCCCCCCCCCCC)CCNC(=O)[C@@]1(O)CC[C@H]2[C@@H]3CCC4=CC(=O)CC[C@]4(C)[C@H]3[C@@H](O)C[C@@]21C.[Cl-]`?
A: Activity [1]: 0.55%; Activity [2]: 4.45%; Activity [3]: Active; Activity [4]: 0.51%; Activity [5]: Active; Activity [6]: 2.08%; Activity [7]: Active; viability at 24 h, 20 µM [8]: 90.4%; Activity [9]: Active; Activity [10]: 2.83%; Activity [11]: Active; Activity [12]: 40.23%; Activity [13]: inactive; Activity [14]: >90%; Activity [15]: 1.36%; viability at 20 µM [16]: 57.4%; viability at 24 h, 20 µM [17]: 94.2%; Activity [18]: Active; Activity [19]: 1.67%; IC50 [20]: 2.5 µM; Activity [21]: 1.36%; Activity [22]: Active; Activity [23]: 15.1%; viability at 20 µM [24]: 25.1%; Activity [25]: 1.63%; IC50 [26]: 6.2 µM; Activity [27]: 4.62%; Ratio [28]: 0.4; Ratio [29]: 2.1; viability at 20 µM [30]: 50.7%; inhibition [31]: Active; Activity [32]: Non-toxic; Activity [33]: Active; Activity [34]: Active; Activity [35]: Active

— ChEMBL document CHEMBL3751695, “Cationic lipid-conjugated hydrocortisone as selective antitumor agent” (Eur J Med Chem, 2016)
